Experimental data reported in patent US12029682B2, “Spray ejector mechanisms and devices providing charge isolation and controllable droplet charge, and low dosage volume ophthalmic administration” (EYENOVIA, INC., priority 2012, dated 2024).
“Also recorded” adds a separate entry of the source.

What was measured:
Assay type in all cases: in vivo, beagle dog
glaucomatous beagles [1] = test: Pupil diameter (PD), Jameson Caliper, in glaucomatous beagles
glaucomatous beagles [2] = test: Intraocular pressure (IOP), TonoVet, in glaucomatous beagles
glaucomatous beagles [3] = test: as above; conditions: including control of morning IOP spike
Description: (§1) One glaucomatous beagle dog (female, aged 3 years) from the University of Florida MacKay Colony of Glaucomatous Beagles was chosen for this study. The animal was rested a minimum of one week before starting the study. Prior to the commencement of the study, the animal was assigned one eye to receive 1.5 μl of 0.005% latanoprost and the contralateral eye to remain untreated as a control. The basic measurement protocol was followed at all times and performed by the same operator. PD was measured via Jameson Caliper (mm horizontally). IOP was measured using a TonoVet instrument with clean probe (iCare). IOP and PD were measured at time 0, 1, 2, 4, 7 and 18 hours daily for two days. Immediately after the time 0 measurement, the animal received 1.5 μl of 0.005% latanoprost in its assigned eye with a spray device. The contralateral eye was left untreated. The spray device was checked for accuracy before and after every use, and required a 10% delivered dose accuracy in pretreatment. Standard measurements continued throughout each day at time 1, 2, 4, 7 and 18 hours. Possible endpoints included, but were not limited to, excessive ocular irritation, ocular damage, and other illness or injury. No statistical crossover was utilized for this study.
as §1, with “study.” for “study. The animal was rested a minimum of one week before starting the study.”, “receive 3.0” for “receive 1.5”, “0 measurements,” for “0 measurement,”, “animal was administered 3.0” for “animal received 1.5”, “eye using” for “eye with”, “spray ejector” for “spray”
All animals were rested for a minimum of one week before starting the trials. IOP and pupil diameter (PD) were measured 5 times (at 0, 1, 2, 4, and 7 hours) daily for four days (study days 1-4) to establish initial baseline levels. The basic measurement protocol was followed at all times and performed by the same operator. PD was measured via Jameson Caliper (mm horizontally). IOP was measured with a TonoVet instrument with clean probe (iCare). After three rest days, one eye was randomly assigned to receive 9 μl of 0.005% latanoprost delivered via a spray ejector device, and the contralateral eye was administered traditional latanoprost from a traditional eyedropper container (26-30 μl).
On study days 5-9, IOP and PD measurements were taken at approximately 0900 h (time 0). Immediately after time 0 measurements, each animal received a once-daily dose of 9 μl of generic 0.005% latanoprost in its assigned eye via the spray ejector device. The contralateral eye received a clinical dose (one drop) of the same commercially available topical drug from a traditional eyedropper (positive control). The spray ejector device was checked for accuracy before and after every use and required a 10% delivered dose accuracy in pretreatment. Standard measurements continued throughout each day at 0, 1, 2, 4, and 7 hours. Possible endpoints included, but were not limited to, excessive ocular irritation, ocular damage, and other illness or injury. No statistical crossover was utilized for this study. […]

glaucomatous beagles [4] = test: Ocular irritation observations in glaucomatous beagles
Description: Active drug delivery begins on study day eight. For five days, IOP and PD measurements are taken at 0900. Immediately after 0900 measurements (time 0), each animal receives 6 μl of generic latanoprost in its assigned eye with the ejector device, followed by a second dosing 3 minutes later of an additional 6 μl (to avoid overloading the conjunctival sac). The contralateral eye receives a clinical dose (one drop) of the same commercially-available topical drug from FDA approved container (positive control). The ejector device is checked for accuracy before and after every use (Table 1). Standard measurements continue throughout each day (at 0:30, 0:45, 1, 2, 7 hrs). Possible endpoints include, but are not limited to, excessive ocular irritation, ocular damage, or other illness and injury. […]
On study days 5-9, IOP and PD measurements were taken at approximately 0900 h (time 0). Immediately after these measurements, each animal received 6 μl of 0.03% bimatoprost in its assigned eye via the spray ejector device. The contralateral eye received a clinical dose (one drop) of the same commercially available topical drug from a traditional eyedropper (positive control). The spray ejector device was checked for accuracy before and after every use and required a 10% delivered dose accuracy in pretreatment. Standard measurements continued throughout each day at 0, 1, 2, 4, and 7 hours. Possible endpoints included, but were not limited to, excessive ocular irritation, ocular damage, and other illness or injury. No statistical crossover was utilized for this study.
Ophthalmic examinations (slit lamp with fluorescein and indirect ophthalmoscopy) were performed on the eyes of each animal prior to Study Day 1. Ocular findings were scored according to the McDonald-Shadduck Score System. Ocular findings were recorded using a standardized data collection sheet. Macroscopic observations were recorded in accordance with the Draize Scale for Scoring Ocular Lesions. Animals were assigned treatments based on basic randomization prior to study day one.
Following a 7 day rest period, the eye choice was reversed. Measurements of IOP, heart rate and pupil diameter (PD) were made at 0:15, 0:30, 0:45, 1, 2, 4, 7, and 18 hours in the primary and crossover study. A veterinary ophthalmologist evaluated each test subject before and after the study for evidence of ocular side effects.
Ophthalmic examinations (slit lamp with fluorescein and indirect ophthalmoscopy) were performed on the eyes of each animal prior to study day 1. Ocular findings were scored according to the McDonald-Shadduck score system and macroscopic observations were recorded in accordance with the Draize scale for scoring ocular lesions. Ocular findings were recorded using a standardized data collection sheet.

[5] = 0.0005%, 0.002%, positively charged, 3 mcl
[6] = 9 μl of 0.004% via spray ejector device, study day 1

Compound: CC(C)OC(=O)CCC/C=C\C[C@@H]1[C@@H](/C=C/[C@@H](O)COc2cccc(C(F)(F)F)c2)[C@H](O)C[C@@H]1O [travoprost]
- decrease of pupillary diameter compared to uncharged droplets (glaucomatous beagles [1]; [5]): less decrease of pupillary diameter
- maximum miosis (glaucomatous beagles [1]; 9 μl of 0.004% via spray ejector device, at time 12 hours): 1.17 mm
- time of significant PD changes (glaucomatous beagles [1]; [6]): 12 h
- IOP lowering compared to uncharged droplets (glaucomatous beagles [2]; [5]): greater IOP lowering
- IOP values vs baseline (glaucomatous beagles [2]; 0.004%, both treatments (18 μl spray ejector device, eyedropper)): much lower than baseline for a full 24 hours
- IOP lowering compared to uncharged droplets (glaucomatous beagles [2]; 0.004%, positively and negatively charged): greater IOP lowering
- IOP lowering (glaucomatous beagles [2]; 3 microliters, 0.002% and 0.0005%, spray ejector device with controllable droplet charge): greater IOP lowering
- spray ejector device vs micropipette treatment (glaucomatous beagles [2]; 9 μl of 0.004% each, throughout the study (p=0.7546)): no statistically significant differences
- highest average daily peak IOP (glaucomatous beagles [2]; 9 μl of 0.004% via spray ejector device, after 5 days of treatment): 18.83 mmHg
- time of significant changes in IOP from baseline (glaucomatous beagles [2]; [6]): 12 h
- post-treatment IOP (glaucomatous beagles [2]; 18 μl morning or evening dose via spray ejector device / traditional therapy): below 20 mmHg
- effectiveness at lowering/controlling IOP vs traditional therapy (glaucomatous beagles [2]; 18 μl of 0.004% once daily, morning or evening, via spray ejector device vs one drop (average 26 μl)): as effective at lowering IOP and constricting the pupil as the traditional therapy; also recorded: as effective at controlling IOP as traditional therapy
- difference in duration of IOP lowering, spray ejector device vs eyedropper (glaucomatous beagles [2]; 18 μl of 0.004% vs one drop): not significant
- duration of IOP lowering (glaucomatous beagles [2]; controllable droplet charge spray administration, 1xqd@hs dosing): full 24 hour IOP lowering
- lowering of IOP over a 24 hour period compared with other prostaglandin agonists studied (glaucomatous beagles [3]): most effective of the prostaglandin agonists studied
- excessive eye irritation or other eye issues (glaucomatous beagles [4]; 9 μl of 0.004%, spray ejector device and micropipette): no reports of excessive eye irritation or other eye issues
- irritation vs eyedropper-treated eyes (glaucomatous beagles [4]; 18 μl of 0.004% via spray ejector device): less than that observed in the eyedropper-treated eyes
